Assays:
[1] = in vivo; cited from earlier work
gastric secretion = conditions: in animals, including man; cited from earlier work
[2] = peptic ulcer disease, clinical evaluation; cited from earlier work
histamine H2-receptor = conditions: relative to another H2-antagonist; cited from earlier work
gastric acid secretion [3] = assay: Gastric Antisecretory Activity in the Heidenhain Pouch Dog; format: in vivo, female dogs; conditions: for Potency Ratio [cimetidine = 1.0] (INTRAVENOUS) / Potency Ratio [cimetidine = 1.0] (ORAL): relative to cimetidine = 1.0
Method: The dosage of the compounds of this invention will depend not only on such factors as the weight of the patient, but also on the degree of gastric acid inhibition desired and the potency of the particular compound being utilized. The decision as to the particular dosage to be employed is within the discretion of the physician. […] The usual human adult oral dose of cimetidine is 300 mg, given four times a day. The usual human adult starting oral dosages of the compounds of this invention are readily determined from their oral ED50 in this same test. […] Similar calculations may be made for iv dosages. These starting dosages (and the number of times administered per day) may, of course, be varied by titration of the dosage to the particular circumstances of the specific patient. […] The active ingredient will preferably be administered in equal doses from one to four times a day.
(§1) Med Res., 3, 86 (1975). […] Two of the standard animal models for determining gastric antisecretory activity of histamaine H2 -antagonists are the Gastric Fistula Rat and the Heidenhain Pouch Dog.
Determination of Gastric Antisecretory Activity in the Heidenhain Pouch Dog
Prior to surgery, hematology and blood chemistry profiles are obtained and an assessment made as to the general health of selected female dogs. Dogs are vaccinated with Tissue Vax 5 (DHLP-Pitman-Moore) and housed in general animal quarters for four weeks' observation so incipient diseases may become apparent. Dogs are fasted with water ad libitium 24 hours prior to surgery.
Anesthesia is induced with Sodium Pentothal (Abbott) 25-30 mg/kg iv. Subsequent anesthesia is maintained with methoxyflurane (Pitman-Moore). A mid-line linea alba incision from xiphoid to umbilicus provides good exposure and ease of closure. The stomach is pulled up into the operative field, the greater curvature stretched out at multiple points and clamps placed along the selected line of incision. The pouch is made from the corpus of the stomach so that true parietal cell juice is obtained. About 30% of the corpus volume is resected. The cannula is made of light-weight,biologically-inert material such as nylon or Delrin with dimensions and attachments after DeVito and Harkins [J. Appl. Physiol., 14, 138 (1959)]. Post operatively, dogs are medicated with antibiotics and an analgesic. They are allowed 2-3 months for recovery. Experiments are carried out in the following way: Dogs are fasted overnight (~18 hours) with water ad libitum prior to each experiment. The dogs are placed in a sling and a saphenous vein cannulated for drug administration. Histamine as the base (100 μg/kg/hr and chlorpheniramine maleate (0.25 mg/kg/hr) are infused continuously (in a volume of 6 ml/hr) with a Harvard infusion pump.
Ninety minutes' infusion are allowed for the dogs to reach a steady state of acid output. At this time the drug or normal saline (control) is administered concomitantly with the secretagogue in a volume of 0.5 ml/kg over a 30 second period. When oral studies are to be carried out, the drug is administered via gastric gavage in a volume of 5 ml/kg. Infusion of the secretagogue is continued and 15 minute samples of the gastric juice are taken for 4.5 hours. Each sample is measured to the nearest 0.5 ml and titratable acidity is determined by titrating a 1 ml sample to pH 7.0 with 0.2N NaOH, using an Autoburet and an electrometric pH meter (Radiometer). Titratable acid output is calculated in microequivalents by multiplying the volume in milliliters by the acid concentration in milliequivalents per liter.
Results are expressed as percent inhibition relative to control readings. Dose response curves are constructed and ED50 values are calculated by regression analyses. From 3 to 5 dogs are used at each dose level and a minimum of three dosage levels are utilized for determination of a dose response curve.

gastric acid secretion [4] = assay: Gastric Antisecretory Activity in the Gastric Fistula Rat; format: in vivo, Male Long Evans rats; conditions: sc, relative to cimetidine = 1.0, 95% confidence limits on following line
Method: as §1
Determination of Gastric Antisecretory Activity in the Gastric Fistula Rat
Male Long Evans rats weighing about 240-260 grams at the time of cannula implantation are used. The design and implantation of the stainless steel cannula into the anterior wall of the fore-stomach are carried out essentially as described by Pare et al. [Laboratory Animal Science, 27, 244 (1977)]. The fistula components are designed and the operative procedure is carried out exactly as described in the above reference. Post operatively the animals are individually housed in solid bottom cages with sawdust and are allowed food and water ad libitum throughout the entire recovery period. Animals are not used for test purposes for at least 15 days after the operative procedure.
The animals are fasted but allowed water ad libitum for 20 hours before the testing procedure is to begin. […]
Titratable acid output is calculated in microequivalents by multiplying the volume in milliliters by the acid concentration in milliequivalents per liter.
Results are expressed as percent inhibition relative to control readings. Dose response curves are constructed and ED50 values are calculated by regression analyses. […]

CNC(=S)NCCCCc1cnc[nH]1 [Burimamide]
oral absorption [1]: poor | inhibits gastric secretion (gastric secretion): inhibits gastric secretion

CNC(=NC#N)NCCSCc1nc[nH]c1C [Cimetidine]
clinical effectiveness [2]: effective therapeutic agent in the treatment of peptic ulcer disease | H2-antagonist potency / effectiveness (histamine H2-receptor): as effective an H2 -antagonist as metiamide | ED50 (ORAL) (gastric acid secretion [3]; oral, histamine-stimulated, 95% confidence limits on following line): 3.29 µmol/kg

Nc1c(NCCCOc2cccc(CN3CCCCC3)c2)c(=O)c1=O [Example 1, 1-Amino-2-[3-(3-piperidinomethylphenoxy)propylamino]cyclobutene-3,4-dione]
Potency Ratio [cimetidine = 1.0] (INTRAVENOUS) (gastric acid secretion [3]): 87 | Potency Ratio [cimetidine = 1.0] (ORAL) (gastric acid secretion [3]; oral): 25

CN(C)Cc1ccc(CSCCNc2c(N)c(=O)c2=O)o1 [Example 2, 1-Amino-2-{2-[(5-dimethylaminomethyl-2-furyl)metylthio]ethylamino}cyclobutene-3,4-dione]
Potency Ratio [cimetidine = 1.0] (INTRAVENOUS) (gastric acid secretion [3]): ~ 20

CN(C)Cc1ccc(CSCCNc2c(N)c(=O)c2=O)s1 [Example 3, 1-Amino-2-{2-[(5-dimethylaminomethyl-2-thienyl)methylthio]ethylamino}cyclobutene-3,4-dione]
Potency Ratio [cimetidine = 1.0] (gastric acid secretion [4]): ~ 1

CN(C)Cc1cccc(OCCCNc2c(N)c(=O)c2=O)c1 [Example 9, 1-Amino-2-[3-(3-dimethylaminomethylphenoxy)propylamino]cyclobutene-3,4-dion]
Potency Ratio [cimetidine = 1.0] (INTRAVENOUS) (gastric acid secretion [3]): ~ 40 | Potency Ratio [cimetidine = 1.0] (ORAL) (gastric acid secretion [3]; oral): ~ 20

Nc1c(NCCCOc2cccc(CN3CCCCCC3)c2)c(=O)c1=O [Example 10i, 1-amino-2-[3-(3-hexamethyleneiminomethylphenoxy)propylamino]cyclobutene-3,4-dione]
Potency Ratio [cimetidine = 1.0] (INTRAVENOUS) (gastric acid secretion [3]): > 40

CNC(=S)NCCSCc1nc[nH]c1C [Metiamide]
H2-antagonist potency / effectiveness (histamine H2-receptor): more potent than burimamide
